Tested on: Plasma
Assay: Inhibition of ADP-induced platelet aggregation in human platelet rich plasma

Row | SMILES | IC50
1 | CN(CCCCOCC(=O)O)c1cc(-c2ccccc2)c(-c2ccccc2)cn1 | 1.1 µM
2 | CN(CCCCOCC(=O)O)c1nnc(-c2ccccc2)c(-c2ccccc2)n1 | 1.3 µM
3 | CN(CCCCOCC(=O)O)c1ncc(-c2ccccc2)c(-c2ccccc2)n1 | 0.8 µM

Other lines, results leading:

Row | IC50 | SMILES
4 | 8.6 µM | CN(CCCCOCC(=O)O)c1cc(-c2ccccc2)c(-c2ccccc2)nn1
5 | 0.2 µM | CN(CCCCOCC(=O)O)c1ccc(-c2ccccc2)c(-c2ccccc2)n1
6 | 0.8 µM | CN(CCCCOCC(=O)O)c1cnc(-c2ccccc2)c(-c2ccccc2)c1

— ChEMBL document CHEMBL1137604, “Structure-activity relationship study on the 6-membered heteroaromatic ring system of diphenylpyrazine-type prostacyclin receptor agonists” (Bioorg Med Chem Lett, 2007)
